Results as given in BigSolDB 2.1.

O=C1Cc2ccccc2N1
Settings | solubility (mole fraction)
in 1,4-dioxane, 287.15 K | 0.276
in 1,4-dioxane, 292.15 K | 0.309
in 1,4-dioxane, 296.15 K | 0.336
in 1,4-dioxane, 300.15 K | 0.363
in 1,4-dioxane, 304.15 K | 0.394
in 1,4-dioxane, 308.65 K | 0.421
in 1,4-dioxane, 311.65 K | 0.448
in 1,4-dioxane, 315.35 K | 0.475
in 1,4-dioxane, 319.05 K | 0.502
in 1,4-dioxane, 323.15 K | 0.529
in 1,4-dioxane, 328.15 K | 0.567
in THF, 293.85 K | 0.0116
in THF, 298.65 K | 0.0133
in THF, 302.95 K | 0.0155
in THF, 307.25 K | 0.0181
in THF, 312.55 K | 0.021
in THF, 317.05 K | 0.0243
in THF, 321.35 K | 0.0276
in THF, 327.35 K | 0.0327
in THF, 333.95 K | 0.0397
in acetone, 288.15 K | 0.0498
in acetone, 294.05 K | 0.0602
in acetone, 299.35 K | 0.0707
in acetone, 304.55 K | 0.0812
in acetone, 309.65 K | 0.0919
in acetone, 314.45 K | 0.102
in acetone, 319.55 K | 0.112
in acetone, 325.55 K | 0.122
in acetone, 328.25 K | 0.127
in acetonitrile, 287.15 K | 0.0508
in acetonitrile, 292.15 K | 0.0628
in acetonitrile, 296.15 K | 0.0748
in acetonitrile, 300.15 K | 0.0869
in acetonitrile, 304.15 K | 0.101
in acetonitrile, 308.65 K | 0.123
in acetonitrile, 311.65 K | 0.146
in acetonitrile, 315.35 K | 0.171
in acetonitrile, 319.05 K | 0.196
in acetonitrile, 323.15 K | 0.227
in acetonitrile, 328.15 K | 0.285
in dichloromethane, 288.15 K | 0.0353
in dichloromethane, 292.15 K | 0.0383
in dichloromethane, 296.15 K | 0.0419
in dichloromethane, 300.15 K | 0.0452
in dichloromethane, 304.15 K | 0.0485
in dichloromethane, 308.65 K | 0.0519
in dichloromethane, 311.65 K | 0.0552
in ethanol, 291.95 K | 0.00842
in ethanol, 297.95 K | 0.0134
in ethanol, 302.95 K | 0.0186
in ethanol, 307.65 K | 0.0253
in ethanol, 312.55 K | 0.0324
in ethanol, 318.05 K | 0.0458
in ethanol, 322.65 K | 0.0568
in ethanol, 327.95 K | 0.0742
in ethanol, 332.65 K | 0.0952
in ethyl acetate, 287.15 K | 0.141
in ethyl acetate, 292.15 K | 0.156
in ethyl acetate, 296.15 K | 0.169
in ethyl acetate, 300.15 K | 0.184
in ethyl acetate, 304.15 K | 0.198
in ethyl acetate, 308.65 K | 0.215
in ethyl acetate, 311.65 K | 0.233
in ethyl acetate, 315.35 K | 0.247
in ethyl acetate, 319.05 K | 0.27
in ethyl acetate, 323.15 K | 0.287
in ethyl acetate, 328.15 K | 0.32
in isopropanol, 291.95 K | 0.00673
in isopropanol, 297.95 K | 0.00919
in isopropanol, 303.05 K | 0.0122
in isopropanol, 308.35 K | 0.0155
in isopropanol, 313.15 K | 0.0192
in isopropanol, 317.45 K | 0.0232
in isopropanol, 322.15 K | 0.0287
in isopropanol, 328.35 K | 0.0355
in isopropanol, 333.35 K | 0.0443
in methanol, 291.95 K | 0.00441
in methanol, 297.95 K | 0.00563
in methanol, 302.95 K | 0.00688
in methanol, 307.65 K | 0.00821
in methanol, 312.55 K | 0.00977
in methanol, 317.45 K | 0.0119
in methanol, 322.15 K | 0.0137
in methanol, 327.35 K | 0.0163
in methanol, 332.35 K | 0.019
in n-butanol, 293.85 K | 0.00297
in n-butanol, 298.65 K | 0.00379
in n-butanol, 302.95 K | 0.00468
in n-butanol, 307.25 K | 0.00546
in n-butanol, 312.55 K | 0.00674
in n-butanol, 317.05 K | 0.00793
in n-butanol, 321.35 K | 0.00952
in n-butanol, 327.35 K | 0.0115
in n-butanol, 333.95 K | 0.0143
in n-propanol, 293.15 K | 0.0387
in n-propanol, 299.35 K | 0.0476
in n-propanol, 303.05 K | 0.0523
in n-propanol, 308.35 K | 0.0599
in n-propanol, 313.15 K | 0.0677
in n-propanol, 317.05 K | 0.0744
in n-propanol, 320.75 K | 0.0814
in n-propanol, 328.35 K | 0.0976
in n-propanol, 333.35 K | 0.109
in toluene, 291.95 K | 0.00318
in toluene, 297.95 K | 0.00526
in toluene, 302.95 K | 0.00796
in toluene, 307.65 K | 0.0121
in toluene, 312.55 K | 0.018
in toluene, 317.45 K | 0.0258
in toluene, 322.15 K | 0.0389
in toluene, 327.35 K | 0.0615
in toluene, 332.05 K | 0.0848
